Measurements published in patent US8309584B2, “Sulfur containing pyrazole-heterocycle derivatives as cannabinoid CB1 receptor antagonists” (Green Cross Corporation, priority 2008, dated 2012).

molecular target: T1, rat CB-1 receptor (Rattus norvegicus, UniProt P20272); assay: rat cannabinoid-1 receptor (CB1R) binding affinity assay; settings: not given
T1 construct: The tissue obtained from the brain of SD rats was homogenized; from tissue; host or cells: SD rat brain membrane homogenate
Experimental: The tissue obtained from the brain of SD rats was homogenized with a Dounce homogenate system in TME(50 mM Tris, 3 mM MgCl2 and 1 mM EDTA, pH 7.4) at 4° C., and the homogenate was centrifuged at 48,000 g for 30 min. at 4° C. The pellet was resuspended in 5 ml of TME and the suspension was divided into aliquots and stored at −70° C. until its use in the following assay.
The tissue concentrations were determined by Bradford protein analysis, and 148 μl of brain tissue of the required concentration was added to the plate. The plate was covered and placed in a 30° C. incubator for 60 min, and then transformed on GF/B filtermat pretreated in polyethylenimine (PEI) using a cell harvester. Each filter was washed five times and dried at 60° C. for 1 hr. Then, the degree of radioactivity retained by the filter was measured using Wallac Microbeta™ (PerkinElmer Life Sciences, Inc., Massachusetts, U.S.A.) and the activity of the compound for inhibiting CB1 receptor was determined therefrom.

T1 sequence (P20272 whole entry): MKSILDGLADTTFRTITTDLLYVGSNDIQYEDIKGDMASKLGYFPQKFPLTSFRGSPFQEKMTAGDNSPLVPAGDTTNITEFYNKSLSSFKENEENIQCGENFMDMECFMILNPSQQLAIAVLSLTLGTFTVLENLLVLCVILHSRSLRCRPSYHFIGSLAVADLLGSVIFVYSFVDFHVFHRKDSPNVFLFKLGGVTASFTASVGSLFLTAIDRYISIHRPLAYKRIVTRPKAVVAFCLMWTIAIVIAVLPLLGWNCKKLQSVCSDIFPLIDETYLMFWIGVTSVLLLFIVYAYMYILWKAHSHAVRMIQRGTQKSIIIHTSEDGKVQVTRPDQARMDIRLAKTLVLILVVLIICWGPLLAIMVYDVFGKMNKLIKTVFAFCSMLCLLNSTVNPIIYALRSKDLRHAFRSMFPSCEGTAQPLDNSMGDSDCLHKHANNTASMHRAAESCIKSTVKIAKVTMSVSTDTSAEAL

| SMILES | IC50 [nM] |
| --- | --- |
| CS(=O)(=O)c1c(-c2nnc(C3(C(F)(F)F)CCC3)o2)nn(-c2ccc(Cl)cc2Cl)c1-c1ccc(Cl)cc1 [Example 82, 2-(5-(4-chlorophenyl)-1-(2,4-dichlorophenyl)-4-(methylsulfonyl)-1H-pyrazol-3-yl)-5-(1-(trifluoromethyl)cyclobutyl)-1,3,4-oxadiazole] | 6.79 |

same assay, conditions: [3H]CP-55940 radioligand, SD rat brain tissue homogenate, 30° C., 60 min; read-out: IC50

| IC50 [nM] | SMILES |
| --- | --- |
| 6.31 | CS(=O)(=O)c1c(-c2nnc(C3(C(F)(F)F)CC3)o2)nn(-c2ccc(Cl)cc2Cl)c1-c1ccc(Cl)cc1 [Example 81, 2-(5-(4-chlorophenyl)-1-(2,4-dichlorophenyl)-4-(methylsulfonyl)-1H-pyrazol-3-yl)-5-(1-(trifluoromethyl)cyclopropyl)-1,3,4-oxadiazole] |
| 22 | CS(=O)(=O)c1c(-c2nnc(C3(c4ccc(Cl)cc4)CC3)o2)nn(-c2ccc(Cl)cc2Cl)c1-c1ccc(Cl)cc1 [Example 83, 2-(5-(4-chlorophenyl)-1-(2,4-dichlorophenyl)-4-(methylsulfonyl)-1H-pyrazol-3-yl)-5-(1-(4-chlorophenyl)cyclopropyl)-1,3,4-oxadiazole] |
| 14.2 | CC(C)(C)c1nnc(-c2nn(-c3ccc(Cl)cc3Cl)c(-c3ccc(Br)cc3)c2S(C)(=O)=O)o1 [Example 88, 2-(5-(4-bromophenyl)-1-(2,4-dichlorophenyl)-4-(methylsulfonyl)-1H-pyrazol-3-yl)-5-tert-butyl-1,3,4-oxadiazole] |
| 7.34 | CS(=O)(=O)c1c(-c2nnc(C3(C(F)(F)F)CCC3)o2)nn(-c2ccc(Cl)cc2Cl)c1-c1ccc(Br)cc1 [Example 90, 2-(5-(4-bromophenyl)-1-(2,4-dichlorophenyl)-4-(methylsulfonyl)-1H-pyrazol-3-yl)-5-(1-(trifluoromethyl)cyclobutyl)-1,3,4-oxadiazole] |
| 8.15 | CC(C)(C)c1nnc(-c2nn(-c3ccccc3Cl)c(-c3ccc(Br)cc3)c2S(C)(=O)=O)o1 [Example 92, 2-(5-(4-bromophenyl)-1-(2-chlorophenyl)-4-(methylsulfonyl)-1H-pyrazol-3-yl)-5-tert-butyl-1,3,4-oxadiazole] |
| 5.21 | CS(=O)(=O)c1c(-c2nnc(C3(C(F)(F)F)CCC3)o2)nn(-c2ccccc2Cl)c1-c1ccc(Br)cc1 [Example 94, 2-(5-(4-bromophenyl)-1-(2-chlorophenyl)-4-(methylsulfonyl)-1H-pyrazol-3-yl)-5-(1-(trifluoromethyl)cyclobutyl)-1,3,4-oxadiazole] |
| 5.84 | CC(C)(C)c1nnc(-c2nn(-c3ccc(Cl)cc3Cl)c(-c3ccc(Cl)cc3)c2S(C)(=O)=O)s1 [Example 100, 2-tert-butyl-5-(5-(4-chlorophenyl)-1-(2,4-dichlorophenyl)-4-(methylsulfonyl)-1H-pyrazol-3-yl)-1,3,4-thiadiazole] |
| 22 | CS(=O)(=O)c1c(-c2nnc(C3(C(F)(F)F)CC3)s2)nn(-c2ccc(Cl)cc2Cl)c1-c1ccc(Cl)cc1 [Example 101, 2-(5-(4-chlorophenyl)-1-(2,4-dichlorophenyl)-4-(methylsulfonyl)-1H-pyrazol-3-yl)-5-(1-(trifluoromethyl)cyclopropyl)-1,3,4-thiadiazole] |
| 3.74 | CS(=O)(=O)c1c(-c2nnc(C3(C(F)(F)F)CCC3)s2)nn(-c2ccc(Cl)cc2Cl)c1-c1ccc(Cl)cc1 [Example 102, 2-(5-(4-chlorophenyl)-1-(2,4-dichlorophenyl)-4-(methylsulfonyl)-1H-pyrazol-3-yl)-5-(1-(trifluoromethyl)cyclobutyl)-1,3,4-thiadiazole] |
| 4.34 | CS(=O)(=O)c1c(-c2nnc(C3(c4ccc(Cl)cc4)CC3)s2)nn(-c2ccc(Cl)cc2Cl)c1-c1ccc(Cl)cc1 [Example 103, 2-(5-(4-chlorophenyl)-1-(2,4-dichlorophenyl)-4-(methylsulfonyl)-1H-pyrazol-3-yl)-5-(1-(4-chlorophenyl)cyclopropyl)-1,3,4-thiadiazole] |
| 7.18 | CC(C)(C)c1nnc(-c2nn(-c3ccccc3Cl)c(-c3ccc(Cl)cc3)c2S(C)(=O)=O)s1 [Example 104, 2-tert-butyl-5-(1-(2-chlorophenyl)-5-(4-chlorophenyl)-4-(methylsulfonyl)-1H-pyrazol-3-yl)-1,3,4-thiadiazole] |
| 0.87 | CS(=O)(=O)c1c(-c2nnc(C3(C(F)(F)F)CCC3)s2)nn(-c2ccccc2Cl)c1-c1ccc(Cl)cc1 [Example 106, 2-(1-(2-chlorophenyl)-5-(4-chlorophenyl)-4-(methylsulfonyl)-1H-pyrazol-3-yl)-5-(1-(trifluoromethyl)cyclobutyl)-1,3,4-thiadiazole] |
| 3.64 | CS(=O)(=O)c1c(-c2nnc(C3(C(F)(F)F)CCC3)s2)nn(-c2ccc(Cl)cc2Cl)c1-c1ccc(Br)cc1 [Example 110, 2-(5-(4-bromophenyl)-1-(2,4-dichlorophenyl)-4-(methylsulfonyl)-1H-pyrazol-3-yl)-5-(1-(trifluoromethyl)cyclobutyl)-1,3,4-thiadiazole] |
| 3.01 | CC(C)(C)c1nnc(-c2nn(-c3ccccc3Cl)c(-c3ccc(Br)cc3)c2S(C)(=O)=O)s1 [Example 112, 2-(5-(4-bromophenyl)-1-(2-chlorophenyl)-4-(methylsulfonyl)-1H-pyrazol-3-yl)-5-tert-butyl-1,3,4-thiadiazole] |
| 2.51 | CS(=O)(=O)c1c(-c2nnc(C3(C(F)(F)F)CC3)s2)nn(-c2ccccc2Cl)c1-c1ccc(Br)cc1 [Example 113, 2-(5-(4-bromophenyl)-1-(2-chlorophenyl)-4-(methylsulfonyl)-1H-pyrazol-3-yl)-5-(1-(trifluoromethyl)cyclopropyl)-1,3,4-thiadiazole] |
| 1.08 | CS(=O)(=O)c1c(-c2nnc(C3(C(F)(F)F)CCC3)s2)nn(-c2ccccc2Cl)c1-c1ccc(Br)cc1 [Example 114, 2-(5-(4-bromophenyl)-1-(2-chlorophenyl)-4-(methylsulfonyl)-1H-pyrazol-3-yl)-5-(1-(trifluoromethyl)cyclobutyl)-1,3,4-thiadiazole] |
| 1.4 | CS(=O)(=O)c1c(-c2nnc(C3(c4ccc(Cl)cc4)CC3)s2)nn(-c2ccccc2Cl)c1-c1ccc(Br)cc1 [Example 115, 2-(5-(4-bromophenyl)-1-(2-chlorophenyl)-4-(methylsulfonyl)-1H-pyrazol-3-yl)-5-(1-(4-chlorophenyl)cyclopropyl)-1,3,4-thiadiazole] |
| 2.06 | CCS(=O)(=O)c1c(-c2nnc(C3(c4ccc(Cl)cc4)CC3)s2)nn(-c2ccc(Cl)cc2Cl)c1-c1ccc(Cl)cc1 [Example 119, 2-(5-(4-chlorophenyl)-1-(2,4-dichlorophenyl)-4-(ethylsulfonyl)-1H-pyrazol-3-yl)-5-(1-(4-chlorophenyl)cyclopropyl)-1,3,4-thiadiazole] |
